{"source": "patent US6121253A", "about": "“Prostaglandin conjugates for treating or preventing bone disease” (Merck Frosst Canada & Co., priority 1999, dated 2000)", "key": {"[1]": {"test": "In vivo uptake and release in rat tibiae and femora", "parameters": "species or system rat (Sprague-Dawley female)", "settings": "single i.v. dose", "protocol": "The animals used in this experiment were sacrificed at 24 hours, 14 and 28 days after the compounds claimed in the instant invention were administered. The radioactivity of the ^14 C and ^3 H was measured after incineration of the long bones to determine the percentage of compound retained in the bone. […] High LP levels are normally associated with the breakdown of bone collagen.\nBoth compounds are administered i.v. via the tail vein to Sprague-Dawley female rats as a radiolabelled compound, equivalent to about 0.3 μCi/animal, [^3 H]-alendronate is administered to nine rats and [^3 H]-PGE2 /[^14 C]-ABP (dual labelled conjugate 14), is administered to seven rats. After 1, 14 or 28 days, animals are sacrificed by CO2 inhalation and the tibiae and femora are dissected, weighed and then stored at -20° C. The amount of radioactivity incorporated into the bone is determined by incineration in a Packard combuster after first air drying the bone for three days at ambient temperature. The percent of the compound retained in the skeleton at each time point is calculated on the basis of the radioactivity, converted to nmoles/gm bone on the assumption that the skeleton represents 8% of the body weight. The skeletal retention is expressed as percent administered dose."}, "[2]": {"test": "Dissociation/release of label from human bone powder in fetal bovine serum at 37 C", "type": "in vitro ADME", "protocol": "Dissociation of [^3 H]-PGE2 /[^14 C]-alendronate from human bone powder in fetal bovine serum at 37 C is measured by incubating 10 mg of human one powder with 1 μl [^3 H]-PGE2 /[^14 C]-ABP in 1 ml FBS for 5 mins. The mixture is centrifuged (20 sec), 100 μl aliquot is taken and counted in Atomlight in an LKB liquid scintillation counter. The rest of the 900 μl solution is withdrawn, the bone powder is washed once with 1 ml phosphate buffered saline, 1 ml fresh fetal bovine serum is added and incubated with the bone powder for 15, 24, 39, 48, 59, 79 and 103 hours in a shaking bath at 37° C. 100 μl aliquots are withdrawn at these times and counted in 10 ml Atomlight in an LKB liquid scintillation counter. The release of radioactivity from the human bone powder into the medium is calculated as follows: dpms from 100 μl of the [^3 H]-PGE2 /[^14 C]-ABP at 5 mins are subtracted from dpms at 0 time. The resulting dpms reflect radioactivity taken up by bone powder. The dpms obtained by counting 100 μl aliquots at each time point are then divided by the dpms taken up by bone. 13% of the ^3 H-moiety is released into the medium at 15 hrs and by 103 hours 32.9% of the radioactivity is released into the medium."}, "[3]": {"test": "Uptake/binding of dual-labelled conjugate to human bone powder in fetal bovine serum", "protocol": "Dual-labelled conjugate 14 ([^3 H]-PGE2 /[^14 C]-alendronate) (21.64 μCi of ^14 C and 19.05 μCi of ^3 H) is placed in 1 ml 100% fetal bovine serum to yield a final concentration of 3.5 μM. […] of this solution is incubated with 10 mg bone powder for 1, 2, 3 and 5 mins with vigorous shaking. The mixture is centrifuged (20 sec), 125 μl aliquot is taken from each sample and counted in 10 ml Atomlight in an LKB liquid scintillation counter, 125 μl of the radioactive sample is also counted at 0 time. The uptake of radioactivity into the bone powder is calculated by subtracting the dpms in the medium counted at the times indicated above from dpms at 0 time and this number is divided by the dpms at 0 time."}, "[4]": {"test": "Characterization of 3H liberated on hydrolysis of conjugate in rat plasma", "type": "in vitro ADME", "settings": "conjugate 20, 24 hr, fresh rat plasma, of the initial counts", "protocol": "A stock solution of 0.4 μCi conjugate 20 or [^3 H]-PGE2 (0.4 μCi) is incubated in either fresh rat plasma, boiled plasma or PBS (ml) at 37 C. After 4 h or 24 h, 100 μl aliquots are removed, diluted with acetonitrile (100 μl), vortexed and centrifuged. 100 μl of supernatant is separated by HPLC (C-18, 0.5% HOAc in water, 66%: acetonitrile 33%, 1 ml/min) with effluent monitored by an on-line scintillation detector and UV detector. No radioactivity is eluted under these conditions when 0.2 μCi, conjugate 20 (62 μg) is applied. (It is necessary to mix 0.4 mg of unlabelled 20 with 0.1 μCi labelled 20 to recover 0.05 μCi from the HPLC.) Radioactive peaks are identified by coelution with authentic [^3 H]-PGE2 and cold PGA2. An authentic sample of PGB2 is prepared by incubating PGE2 (2.4 mg) with 1 ml rat plasma at 37° C. for 24 hr. The sample, purified by HPLC, will have appropriate ^1 H-NMR, UV and MS. To identify radioactive peaks eluting at the solvent front with incubation of conjugate 20 for 24 hr in fresh rat plasma, the fraction is collected and distilled. The collected distillate has 60% of the initial counts."}, "[5]": {"settings": "long term s.c.; adrenal glands, liver, kidneys, and lungs; cited from earlier work"}, "[6]": {"settings": "1, 3 and 6 mg/Kg/day PGE2, rapidly growing rats; cited from earlier work"}, "[7]": {"settings": "oral dosing; cited from earlier work"}, "[8]": {"settings": "cited from earlier work"}, "[9]": {"settings": "cited from earlier work", "remark": "listed apart in the source"}, "[10]": {"settings": "s.c. over 60, 120, and 180 days"}}, "note": "Like-named read-outs stand apart in the source and are kept apart here."}
{"smiles": "CCCCC[C@@H](/C=C/[C@H]1[C@H](O)CC(=O)[C@@H]1C/C=C\\CCCC(=O)O)OC(=O)CSCCCC(P(=O)(O)O)P(=O)(O)O", "note": "[Conjugate 14, PGE2 bisphosphonate conjugate]", "values": [{"measurement": "uptake into / delivery to bone in vivo", "setting": "[1]", "value": "uptake of the labeled compound shown below into rat tibiae and femora after a single dose was administered intravaneously was demonstrated"}, {"measurement": "3H-moiety released into the medium", "setting": "[2]; 15 hrs, fetal bovine serum, 37° C.", "value": 13, "unit": "%"}, {"measurement": "radioactivity released into the medium (3H-moiety)", "setting": "[2]; 103 hours, fetal bovine serum, 37° C.", "value": 32.9, "unit": "%"}, {"measurement": "rate of release (disassociation) of PG (3H) moiety from human bone powder", "setting": "[2]; fetal bovine serum, 37° C., listed as 14 C/^3 H dual labeled compound", "value": "approximately 5 %/day"}, {"measurement": "rate of release (disassociation) of PG (3H) moiety from human bone powder", "setting": "[2]; fetal bovine serum, 37° C., listed as [^3 H]-PGE2 /[^14 C]-alendronate", "value": "About 5 %/day"}, {"measurement": "release of the prostaglandin from the bisphosphonate at bone", "setting": "[2]; radiolabel and radioimmunoassay experiments", "value": "confirm release of the prostaglandin from the bisphosphonate at the bone cell site"}, {"measurement": "dpms of 14C-moiety in the medium", "setting": "[2]; up to 103 hours, fetal bovine serum, 37° C.", "value": "not significantly changed"}, {"measurement": "time of uptake to human bone powder", "setting": "[3]; in vitro", "value": "within one minute"}, {"measurement": "uptake of 3H-moiety by human bone powder", "setting": "[3]; within 1 min", "value": "~53", "unit": "%"}, {"measurement": "uptake of 14C-moiety by human bone powder", "setting": "[3]; within 1 min", "value": "about 76%"}, {"measurement": "uptake of 14C-moiety by human bone powder", "setting": "[3]; within 1 min, listed as 14 C/^3 H dual labeled compound", "value": "About 77%"}]}
{"smiles": "CCCCC[C@@H](/C=C/[C@H]1[C@H](O)CC(=O)[C@@H]1C/C=C\\CCCC(=O)O)OC(=O)CSCc1cc(CSCC(=O)O[C@H](/C=C/[C@H]2[C@H](O)CC(=O)[C@@H]2C/C=C\\CCCC(=O)O)CCCCC)cc(CC(P(=O)(O)O)P(=O)(O)O)c1", "note": "[Conjugate 20, Bis-(PGE2)-bisphosphonate conjugate]", "values": [{"measurement": "counts in collected distillate of radioactive peak eluting at solvent front", "setting": "[4]", "value": 60, "unit": "%"}]}
{"smiles": "CCCCC[C@H](O)/C=C/[C@H]1[C@H](O)CC(=O)[C@@H]1C/C=C\\CCCC(=O)O", "note": "[PGE2]", "values": [{"measurement": "soft tissue weight", "setting": "[5]", "value": "soft tissue weight increases in adrenal glands, liver, kidneys, and lungs"}, {"measurement": "hard tissue mass in the secondary spongiosa of the proximal tibial metaphysis", "setting": "[6]", "value": "increase in hard tissue mass"}, {"measurement": "number of trabeculae", "setting": "[6]", "value": "increase in the number of trabeculae"}, {"measurement": "side effects", "setting": "[7]", "value": "loose stools, diarrhea, vomiting, infected sclerae, and increased serum alkaline phosphatase levels"}, {"measurement": "serum phosphate levels", "setting": "[8]; 1 mg of PGE2", "value": "significant decreases"}, {"measurement": "side effects", "setting": "[8]; s.c., doses of 3 mg/Kg/day or higher, rats", "value": "diarrhea and flushing of the extremities along with weight loss"}, {"measurement": "periosteal and corticoendosteal bone mass", "setting": "[9]; daily s.c. administration", "value": "increases periosteal and corticoendosteal bone mass"}, {"measurement": "bone activity", "setting": "[9]; [10]", "value": "elevated bone activity"}, {"measurement": "tibial diaphyseal bone mass", "setting": "[9]; [10]", "value": "increased tibial diaphyseal bone mass"}]}
